Laboratory results reported in US6339149B1, “Isolated nucleic acid molecules which encode tumor rejection antigens found in dage” (Ludwig Institute for Cancer Research, priority 1994, dated 2002).

Test system: C1R-A24 cells
Assay: 51Cr release assay: peptide sensitization of C1R-A24 cells to lysis by anti LB33-E CTLs
Format: cell-based, human
Conditions: 51Cr labeled C1R-A24 cells incubated 30 minutes with peptide, E/T ratio 10:1, chromium release after 4 hours
Experimental: The lysis assay employed was a chromium release assay following Herin et al., Int. J. Cancer 39:390-396 (1987), the disclosure of which is incorporated by reference. The assay, however, is described herein. The target melanoma cells were grown in vitro. Prior to labelling, these cells were incubated for 48 hours, in the presence of 50 U/ml of IFN-γ to increase the expression of HLA Class I molecules. The cells were then resuspended at 10^7 cells/ml in DMEM, supplemented with 10 mM HEPES and 30% FCS (i.e. fetal calf serum), and incubated for 45 minutes at 37° C. with 200 μCi/ml of Na(^51Cr)O4. Labelled cells were washed three times with DMEM, supplemented with 10 mM Hepes. These were then resuspended in DMEM supplemented with 10 mM Hepes and 10% FCS, after which 100 ul aliquots containing 10^3 cells, were distributed into 96 well microplates. PBL containing samples were added in 100 ul of the same medium, and assays were carried out in duplicate. Plates were centrifuged for 4 minutes at 100 g, and incubated for four hours at 37° C. in a 5.5% CO2 atmosphere.
Plates were centrifuged again, and 100 ul aliquots of supernatant were collected and counted. Percentage of ^51Cr release was calculated as follows: [formula]
where ER is observed, experimental ^51Cr release, SR is spontaneous release measured by incubating 10^3 labeled cells in 200 ul of medium alone, and MR is maximum release, obtained by adding 100 ul 0.3% Triton X-100® to target cells.
Four sequences in this region which (i) were 9 or 10 amino acids long, (ii) had Tyr or Phe at position 2, and (iii) had one of Phe, Leu, Ile, or Trp at C-terminus were possible. This is the motif for HLA-A24 binding described by Kubo, et al, J. Immunol 152:3913 (1994); Meier, et al, Immunogenetics 40:306-308 (1994). These were synthesized, and incubated with cells of MHC class I negative B-cell lympoblastoid line C1R, which had been transfected with the HLA-A24 cDNA clone described supra. One peptide:
Comparative experiments were carried out, wherein peptides containing one additional N- or C-terminal amino acid, and where the C-terminal Leu was deleted, were used. […] Peptides used extended SEQ ID NO:5 at the N-terminues with Ala (SEQ ID NO:6), and by deleting the C-terminal Leu (SEQ ID NO:7). […] In these experiments, ^51Cr labeled C1R-A24 cells were incubated for 30 minutes in the presence of indicated peptide concentrations CTLs were added at E/T ratios of 10:1, and chromium release was measured after 4 hours.

Row | Substance | EC50 (read-out: half maximal effect in sensitizing transfected C1R-A24 cells to lysis by anti LB33-E CTLs) | sensitization of C1R-A24 cells to lysis, compared with SEQ ID NO:5
1 | LYVDSLFFL [SEQ ID NO. 5, Leu Tyr Val Asp Ser Leu Phe Phe Leu] | 500 nM | 
2 | SEQ ID NO:6: Peptide that extends SEQ ID NO:5 at the N-terminus with Ala (ALYVDSLFFL) |  | sensitized the cells to lysis, although to a lesser degree than SEQ ID NO:5
3 | SEQ ID NO:7: Peptide of SEQ ID NO:5 with the C-terminal Leu deleted (LYVDSLFF) |  | much less sensitive in sensitizing the cells
4 | SEQ ID NO:8: Peptide of SEQ ID NO:5 with Arg added to the C terminus (LYVDSLFFLR) |  | much less sensitive in sensitizing the cells
